The text below walks through data of PubChem BioAssay (NCI).

Some test systems named below: A549 NSCLC; NCI-H226 lung; UACC-257 melanoma; NCI-H460 lung; OVCAR-3 ovarian; COLO 205 colon; HL-60(TB) leukemia; PC-3 prostate; NCI/ADR-RES ovarian; MDA-MB-231 breast.
Holding throughout (experiment): NCI-60 cell line screen, 48 h

Molecules are shown by their SMILES. Where “and” joins values, the source holds several entries; their conditions need not be identical. Equal values may be shown once.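 Five concentrations, 48 hours, 96-well plates. Abbreviation: GI50, concentration required for 50% inhibition of growth. TGI: concentration producing complete growth inhibition.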

Regarding `CCC1NCC(=O)c2c1[nH]c1ccccc21` (stereo not given), the TGI in the test with A549 NSCLC, in the test on NCI-H226 lung, in the test on UACC-257 melanoma, with NCI-H460 lung, in the test on OVCAR-3 ovarian and in the test with COLO 205 colon was over 100 µM throughout. In addition, the TGI in the test with HL-60(TB) leukemia was over 100 µM.

For `Cc1cccc(CC(C)(C)C)c1NC(=O)C(=O)C(C(=O)c1ccc2ccccc2c1)C1OC(=O)c2ccccc21` (stereo not given), the TGI in the test with A549 NSCLC was 40.9 µM; in the test with NCI-H226 lung, 7.12 µM; in the test with UACC-257 melanoma it was 26.2 µM; in the test with NCI-H460 lung, 17 µM; with OVCAR-3 ovarian, over 100 µM; in the test with COLO 205 colon, 92 µM.

Regarding `CCN1CC2(C)CC[C@@H](OC)C34[C@@H]2[C@H](OC(C)=O)C2(OCO[C@@]25C[C@H](OC)C2C[C@]3(O)[C@@H]5[C@H]2O)[C@H]14`, the TGI with A549 NSCLC, in the test with NCI-H226 lung, with UACC-257 melanoma, in the test on NCI-H460 lung, with OVCAR-3 ovarian and with COLO 205 colon was over 100 µM in each case. In the test with HL-60(TB) leukemia, this compound came in with a TGI of over 100 µM.

As to `C/C(=N\NC(=S)N1CCC(C2CCN(C(=S)N/N=C(\C)c3ccccn3)CC2)CC1)c1ccccn1`, the TGI in the test with A549 NSCLC, in the test on NCI-H226 lung, in the test on UACC-257 melanoma, in the test on NCI-H460 lung, with OVCAR-3 ovarian and in the test on COLO 205 colon was over 100 µM throughout. In the test with HL-60(TB) leukemia, the TGI was over 100 µM.

For the compound `O=C(OCc1nc2ccc(Br)cc2c(=O)n1-c1ccccc1)c1ccccc1O`, the TGI in the test with A549 NSCLC, with NCI-H226 lung, with UACC-257 melanoma, in the test on NCI-H460 lung, with OVCAR-3 ovarian and with COLO 205 colon was over 100 µM throughout. The TGI in the test on HL-60(TB) leukemia is over 100 µM.

On to `N#Cc1ccc(N2Cc3cc(Cl)ccc3OC3=C2C(=O)N(Cc2ccccc2)C3=O)cc1`, for which the GI50 in the test with PC-3 prostate is 1.41 µM; in the test with A549 NSCLC, 10.1 µM; in the test on NCI/ADR-RES ovarian, 2.69 µM; in the test on NCI-H226 lung it was 1.93 µM; in the test with UACC-257 melanoma, 1.35 µM; in the test on NCI-H460 lung, 2.09 µM. For the same compound, the GI50 in the test on OVCAR-3 ovarian is 0.442 µM; with COLO 205 colon, 1.21 µM; with MDA-MB-231 breast it was 1.74 µM. Also, the TGI in the test on PC-3 prostate is 3.52 µM; with A549 NSCLC, 26.7 µM; with NCI/ADR-RES ovarian it was 11.4 µM; in the test on NCI-H226 lung, 6.78 µM; with UACC-257 melanoma, 2.85 µM; in the test on NCI-H460 lung, 4.52 µM. Moreover, the TGI in the test on OVCAR-3 ovarian turned out to be 1.54 µM; in the test with COLO 205 colon, 2.92 µM; in the test with MDA-MB-231 breast it was 3.99 µM.

As for `Cc1cccc(N2C(=O)/C(=C/c3ccc(N(CCC#N)CCC#N)cc3C)N=C2c2cc([N+](=O)[O-])ccc2Cl)c1`, the TGI with A549 NSCLC, with NCI-H226 lung, in the test on UACC-257 melanoma, in the test with NCI-H460 lung, in the test with OVCAR-3 ovarian and with COLO 205 colon was over 100 µM in each case. In the test on HL-60(TB) leukemia, the TGI was over 100 µM.

Take `CC(C)=C1CCC(CN2CCCC2)C1=O` (stereo not given): the TGI in the test on A549 NSCLC is over 100 µM; in the test with NCI-H226 lung, over 100 µM; in the test on UACC-257 melanoma, 66.7 µM; in the test with NCI-H460 lung it was over 100 µM; with OVCAR-3 ovarian it was 31.3 µM; with HL-60(TB) leukemia it was 50.8 µM.

Turning to `O=C1CC2Sc3ccccc3N=C2N1c1ccc(Cl)cc1Cl` (stereo not given), the TGI in the test on A549 NSCLC, in the test with NCI-H226 lung, in the test on UACC-257 melanoma, in the test with NCI-H460 lung, with OVCAR-3 ovarian and with COLO 205 colon was over 100 µM in each case. In addition, in the test with HL-60(TB) leukemia, the TGI was found to be 72.1 µM.

As to `CCOC(=N)CC(=O)NC(C)c1ccccc1` (stereo not given), the TGI in the test on A549 NSCLC, in the test with NCI-H226 lung, in the test with UACC-257 melanoma, in the test with NCI-H460 lung, in the test on OVCAR-3 ovarian and in the test on COLO 205 colon was over 100 µM in each case. The compound further returned a TGI in the test on HL-60(TB) leukemia of over 100 µM.

Turning to `CCCCCCCCCCCCCCCC(=O)N[C@H]1CCc2cc(OC)c(OC)c(OC)c2-c2ccc(SC)c(=O)cc21`, the GI50 in the test with A549 NSCLC was 3.63 µM; in the test with NCI-H226 lung, 2.63 µM; in the test with UACC-257 melanoma, 0.699 µM; in the test on NCI-H460 lung, 2.97 µM; with OVCAR-3 ovarian it was 0.53 µM; with HL-60(TB) leukemia it was 2.01 µM. Further, the TGI in the test on A549 NSCLC is 13.1 µM and 14.4 µM; in the test on NCI-H226 lung, 0.656 µM and 5.65 µM; in the test on UACC-257 melanoma, 13.1 µM and 26.4 µM; in the test with NCI-H460 lung it was 2.15 µM and 10.1 µM; with OVCAR-3 ovarian it was 0.642 µM and 3.01 µM; with COLO 205 colon it was 0.494 µM and 0.391 µM. In addition, the TGI in the test on HL-60(TB) leukemia was 1.35 µM and 6.82 µM.

Turning to `O=C1/C(=C/c2ccccc2)CN(C(=O)Oc2ccc([N+](=O)[O-])cc2)C/C1=C\c1ccccc1`, the values for the GI50 in the test with UACC-257 melanoma, in the test on COLO 205 colon and in the test with HL-60(TB) leukemia were 6.29 µM, 4.95 µM and 1.73 µM, respectively. Moreover, the TGI in the test with UACC-257 melanoma was 8.79 µM; in the test with OVCAR-3 ovarian, 5.58 µM; in the test on HL-60(TB) leukemia, 3.97 µM and 5.9 µM.

Take `CCOC(=O)NNC(=O)NC12CC3CC(CC(C3)C1)C2`: the TGI in the test on A549 NSCLC, with NCI-H226 lung, in the test with UACC-257 melanoma, in the test on NCI-H460 lung, with OVCAR-3 ovarian and in the test on COLO 205 colon was over 100 µM throughout.

With `C/C(=N/Nc1ccc([N+](=O)[O-])cc1[N+](=O)[O-])C(CC(C(=O)Nc1ccccc1C)/C(C)=N\Nc1ccc([N+](=O)[O-])cc1[N+](=O)[O-])C(=O)Nc1ccccc1C` (stereo not given), the TGI was 64.6 µM in the test on A549 NSCLC; 19.3 µM with NCI-H226 lung; 43.9 µM in the test on UACC-257 melanoma; 36.4 µM in the test on NCI-H460 lung; 22.4 µM in the test on OVCAR-3 ovarian; 25.4 µM in the test with COLO 205 colon. In the test on HL-60(TB) leukemia, the TGI was over 100 µM.

Turning to `CC[C@@]1(O)C(=O)OCc2c1cc1n(c2=O)Cc2cc3c(NC(C)=O)c(O)ccc3nc2-1`, the GI50 in the test with A549 NSCLC was 1.68 µM; in the test with NCI-H226 lung, 2.98 µM; with UACC-257 melanoma it was 10.8 µM; in the test on NCI-H460 lung, 0.288 µM; in the test on OVCAR-3 ovarian it was 9.7 µM; in the test with COLO 205 colon it was 17.6 µM. The GI50 in the test with HL-60(TB) leukemia is 0.416 µM. The TGI in the test with A549 NSCLC was over 100 µM; in the test with NCI-H226 lung, over 20.3 µM; in the test with UACC-257 melanoma, over 86.6 µM; with NCI-H460 lung, 4.24 µM; with OVCAR-3 ovarian, 41.1 µM; in the test with COLO 205 colon it was over 100 µM. The TGI with HL-60(TB) leukemia came to 5.05 µM.
